# Results reported in ChEMBL document CHEMBL1140281, “The discovery of a selective, high affinity A(2B) adenosine receptor antagonist for the potential treatment of asthma” (Bioorg Med Chem Lett, 2005).
# pKi: −log10 of the molar value.
# Columns and labels:
# Adenosine receptor A2b [1] = target: T1, Adenosine receptor A2b (Homo sapiens, UniProt P29275); test: Binding affinity for adenosine A2b receptor by using as [3H]ZM-241385 radioligand in membranes from HEK-A2B cells
# T1 sequence (P29275 whole entry): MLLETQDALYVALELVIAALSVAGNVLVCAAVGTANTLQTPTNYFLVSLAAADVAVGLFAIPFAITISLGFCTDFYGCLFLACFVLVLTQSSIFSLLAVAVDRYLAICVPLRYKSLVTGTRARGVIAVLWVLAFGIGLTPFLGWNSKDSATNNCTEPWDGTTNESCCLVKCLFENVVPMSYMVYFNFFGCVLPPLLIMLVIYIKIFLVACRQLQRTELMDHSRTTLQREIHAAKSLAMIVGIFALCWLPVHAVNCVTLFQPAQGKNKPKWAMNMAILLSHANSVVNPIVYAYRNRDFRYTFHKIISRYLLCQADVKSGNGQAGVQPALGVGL
# Adenosine receptor A2b [2] = target: T1, Adenosine receptor A2b
# Adenosine receptor A1 = target: T2, Adenosine receptor A1 (Homo sapiens, UniProt P30542); test: biochemical
# T2 sequence (P30542 whole entry): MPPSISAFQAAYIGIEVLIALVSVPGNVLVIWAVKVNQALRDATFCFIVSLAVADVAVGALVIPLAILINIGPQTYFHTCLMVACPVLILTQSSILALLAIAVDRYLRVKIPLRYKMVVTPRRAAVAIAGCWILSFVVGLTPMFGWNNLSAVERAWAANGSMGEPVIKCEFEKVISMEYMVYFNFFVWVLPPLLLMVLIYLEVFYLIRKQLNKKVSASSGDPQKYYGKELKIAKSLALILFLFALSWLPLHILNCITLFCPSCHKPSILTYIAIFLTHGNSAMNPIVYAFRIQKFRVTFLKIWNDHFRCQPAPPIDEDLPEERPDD
# Adenosine receptor A2a [3] = target: T3, Adenosine receptor A2a (Homo sapiens, UniProt P29274); test: biochemical
# Description: Binding affinity for adenosine A2a receptor by using as [3H]ZM-241385 (2 nM) radioligand in membranes from HEK-A2A cells
# Adenosine receptor A2b [4] = target: T1, Adenosine receptor A2b; test: Binding affinity against Adenosine A2b receptor labeled by [3H]ZM-241385 in membranes prepared from HEK-A2B cells
# Adenosine receptor A2a [5] = target: T3, Adenosine receptor A2a; test: biochemical; remark: listed apart in the source
# Description: Binding affinity against Adenosine A2a receptor labeled by [3H]ZM-241385 in membranes prepared from HEK-A2A cells
# T3 sequence (P29274 whole entry): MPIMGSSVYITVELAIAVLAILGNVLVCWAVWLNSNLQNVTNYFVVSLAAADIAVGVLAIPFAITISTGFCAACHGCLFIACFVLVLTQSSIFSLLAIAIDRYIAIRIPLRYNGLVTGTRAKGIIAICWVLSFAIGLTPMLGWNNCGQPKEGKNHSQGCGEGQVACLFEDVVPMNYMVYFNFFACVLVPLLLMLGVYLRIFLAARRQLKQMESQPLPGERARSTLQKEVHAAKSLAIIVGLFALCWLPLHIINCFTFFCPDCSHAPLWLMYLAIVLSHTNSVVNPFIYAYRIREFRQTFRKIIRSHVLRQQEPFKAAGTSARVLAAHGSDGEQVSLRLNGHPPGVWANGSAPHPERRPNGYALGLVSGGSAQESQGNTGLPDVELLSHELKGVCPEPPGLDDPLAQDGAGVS
pKi (Adenosine receptor A2b [1]),pKi (Adenosine receptor A2b [2]),pKi (Adenosine receptor A1),pKi (Adenosine receptor A2a [3]),SMILES,pKi (Adenosine receptor A2b [4]),pKi (Adenosine receptor A2a [5])
6.67,6.67,5.74,< 5.30,CCCn1c(=O)c2[nH]c(-c3ccc(OCc4nc(-c5ccc(F)cc5)no4)cc3)nc2n(CCC)c1=O,,
,6.59,5.29,5.31,CCCn1c(=O)c2nc(-c3ccc(OCc4noc(-c5ccc(C(F)(F)F)cc5)n4)cc3)[nH]c2n(CCC)c1=O,,
,5.74,< 5.22,< 5.30,CCCn1c(=O)c2nc(-c3ccc(OCc4nc(-c5ccccc5Cl)no4)cc3)[nH]c2n(CCC)c1=O,,
,5.23,,,CCCn1c(=O)c2[nH]c(-c3ccc(OCc4noc(-c5ccccc5Cl)n4)cc3)nc2n(CCC)c1=O,,
,7.04,6.95,6.00,CCCn1c(=O)c2nc(-c3ccc(OCc4noc(-c5ccc(C)cc5)n4)cc3)[nH]c2n(CCC)c1=O,,
,6.28,6.19,< 5.30,CCCn1c(=O)c2nc(-c3ccc(OCc4nc(-c5ccc(C)cc5)no4)cc3)[nH]c2n(CCC)c1=O,,
,5.68,< 5.22,< 5.30,CCCn1c(=O)c2nc(-c3ccc(OCc4noc(-c5cccc(Cl)c5)n4)cc3)[nH]c2n(CCC)c1=O,,
,< 5.70,< 5.22,< 5.30,CCCn1c(=O)c2nc(-c3ccc(OCc4nc(-c5ccccc5F)no4)cc3)[nH]c2n(CCC)c1=O,,
,5.29,,,CCCn1c(=O)c2[nH]c(-c3ccc(OCc4nc(-c5ccc(Cl)cc5)no4)cc3)nc2n(CCC)c1=O,,
,6.25,< 5.22,< 5.30,CCCn1c(=O)c2[nH]c(-c3ccc(OCc4nc(-c5ccccc5OC)no4)cc3)nc2n(CCC)c1=O,,
,5.44,,,CCCn1c(=O)c2nc(-c3ccc(OCc4noc(-c5ccc(Cl)cc5)n4)cc3)[nH]c2n(CCC)c1=O,,
,6.02,< 5.22,< 5.30,CCCn1c(=O)c2[nH]c(-c3ccc(OCc4nc(-c5cccc(C(F)(F)F)c5)no4)cc3)nc2n(CCC)c1=O,,
,6.19,,,CCCn1c(=O)c2nc(-c3ccc(OCc4noc(-c5ccccc5F)n4)cc3)[nH]c2n(CCC)c1=O,,
,5.95,< 5.22,< 5.30,CCCn1c(=O)c2nc(-c3ccc(OCc4nc(-c5ccccc5C)no4)cc3)[nH]c2n(CCC)c1=O,,
,5.84,5.70,< 5.30,CCCn1c(=O)c2nc(-c3ccc(OCc4nc(-c5cccc(F)c5)no4)cc3)[nH]c2n(CCC)c1=O,,
,< 5.18,< 5.22,< 5.30,CCCn1c(=O)c2nc(-c3ccc(OCc4nc(-c5cccc(C)c5)no4)cc3)[nH]c2n(CCC)c1=O,,
,6.36,< 5.00,< 4.82,CCCn1c(=O)c2nc(-c3ccc(OCc4noc(-c5ccccc5C)n4)cc3)[nH]c2n(CCC)c1=O,,
,6.68,6.54,< 5.30,CCCn1c(=O)c2[nH]c(-c3ccc(OCc4noc(-c5ccc(C#N)cc5)n4)cc3)nc2n(CCC)c1=O,,
,5.56,< 5.22,< 5.30,CCCn1c(=O)c2nc(-c3ccc(OCc4nc(-c5ccc(OC)cc5)no4)cc3)[nH]c2n(CCC)c1=O,,
,6.49,6.33,5.50,CCCn1c(=O)c2nc(-c3ccc(OCc4nc(-c5ccccc5C(F)(F)F)no4)cc3)[nH]c2n(CCC)c1=O,,
,6.60,5.66,,CCCn1c(=O)c2[nH]c(-c3ccc(OCc4noc(-c5ccc(OC)cc5)n4)cc3)nc2n(CCC)c1=O,,
,5.77,< 5.22,< 5.30,CCCn1c(=O)c2nc(-c3ccc(OCc4nc(-c5cccc(OC)c5)no4)cc3)[nH]c2n(CCC)c1=O,,
,6.31,5.93,< 5.30,CCCn1c(=O)c2[nH]c(-c3ccc(OCc4nc(-c5ccc(C(F)(F)F)cc5)no4)cc3)nc2n(CCC)c1=O,,
,6.00,< 5.22,< 5.30,CCCn1c(=O)c2nc(-c3ccc(OCc4noc(-c5cccc(C(F)(F)F)c5)n4)cc3)[nH]c2n(CCC)c1=O,,
,6.66,< 5.22,< 5.30,CCCn1c(=O)c2[nH]c(-c3ccc(OCc4noc(-c5ccc(F)cc5)n4)cc3)nc2n(CCC)c1=O,,
,< 5.70,< 5.22,< 5.30,CCCn1c(=O)c2[nH]c(-c3ccc(OCc4noc(-c5cccc(F)c5)n4)cc3)nc2n(CCC)c1=O,,
,6.15,,,CCCn1c(=O)c2[nH]c(-c3ccc(OCc4noc(-c5cccc(C)c5)n4)cc3)nc2n(CCC)c1=O,,
,7.38,8.19,6.39,CCCn1c(=O)c2nc(-c3ccc(OCc4nc(-c5cccc(Cl)c5)no4)cc3)[nH]c2n(CCC)c1=O,,
,5.34,< 5.22,< 5.30,CCCn1c(=O)c2nc(-c3ccc(OCc4nc(-c5ccc(C#N)cc5)no4)cc3)[nH]c2n(CCC)c1=O,,

SMILES,pKi (Adenosine receptor A2b [1]),pKi (Adenosine receptor A2b [2]),pKi (Adenosine receptor A1),pKi (Adenosine receptor A2a [3]),pKi (Adenosine receptor A2b [4]),pKi (Adenosine receptor A2a [5])
CCCn1c(=O)c2[nH]c(-c3ccc(OCc4noc(-c5ccccc5OC)n4)cc3)nc2n(CCC)c1=O,,6.90,5.94,5.53,6.90,7.64
